Test results taken from patent US10022376B2 (Pfizer Inc., priority 2014, dated 2018).
Counter-ions that a name gives are not always drawn.

Key:
[1] = test system: rhIFNγ stimulated STAT-3 phosphorylation in the A549 human epithelial cell line; assay: A549 Cell Assay: Inhibition of pSTAT3; format: cell-based; settings: Homo sapiens; A549 cells
Method in brief: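 A549 cells cultured 18 h were preincubated 1 h at 37° C with compound (0.3 nM to 10 μM, 0.1% DMSO) in DMEM with 0.2% BSA, then stimulated with 20 ng/mL rhIFNγ for 30 min. pSTAT3 Tyr705 in the lysates was measured by MSD immunoassay and expressed as percent inhibition.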

[2] = test system: rhIL-2 stimulated STAT5 phosphorylation in isolated human T cells; assay: Human T Cell Assay: Inhibition of pSTAT5; format: cell-based
Method: Human T Cell Assay: Inhibition of pSTAT5
An assay measuring the efficacy of JAK inhibitors on the functional response of recombinant human interleukin-2 (rhIL-2) stimulated STAT5 phosphorylation in isolated human T cells.
Human whole blood from individual donors was collected from the phlebotomy unit on-site. Peripheral venous blood (30-60 mL) from healthy volunteers of either sex was used as the source of T cells. T cell isolation from venous whole blood is routinely performed in a class II microbiological safety cabinet. Each sample was collected into between 3 and 6 10 mL Sodium Heparin Vacutainer tubes (BD #367874). The blood was poured into sterile 50 mL conicals (Corning #430828) and incubated with the T cell Rosette Sep Cocktail (Stemcell Technologies #15061) at 50 μL/mL antibody/blood ratio for 20 min. with shaking at room temperature. The blood/antibody mixture was then diluted 1:2 with PBS (Pfizer media prep)/2% FBS (Sigma #F4135) and 30 mL of the mixture was layered onto 15 mL Ficoll-Hypaque (GE Healthcare #17-1440-03) in 50 mL conical tubes. The tubes were then centrifuged at 1200×g for 20 min. at room temperature with no brake. Following centrifugation the T cells formed a buffy coat between the Ficoll-Hypaque and plasma layers. The plasma above the buffy coats was removed to within 5 mm of the buffy coat using a sterile Pasteur pipette. The buffy coats were then collected into fresh sterile 50 mL conical tubes containing 25 mL PBS/2% FBS (2 buffy coats per 50 mL conical). PBS/2% FBS was added to the buffy coat cells such that the final volume in the tube was 50 mL. The tubes were then centrifuged at 200×g for 15 min. at room temperature. The supernatant was discarded and the pellet re-suspended in 10-20 mL of DMEM (Pfizer media prep) Assay media/0.2% BSA (Miltenyi #130-091-376). A differential cell count was performed using a haemacytometer and cells were diluted to 1.1×10^6 T cells/ml in DMEM/0.2% BSA media. Compounds (10 mM-0.3 μM) were diluted with Hanks Balanced Salt Solution (HBSS) (Sigma #H6648) at 1:100 dilution. Immediately following cell isolation and compound dilution, 90 μl/well of T cells (˜1×10^6/ml) in assay medium (DMEM+0.2% BSA) was added to the VWR Deep well V bottom plate (#3906-520-300). 10 μl/well of compound (final concentration range of 10 μM-0.3 nM with 0.1% DMSO) or 0.1% DMSO in HBSS as controls was added to the appropriate wells. Plates were incubated for 1 hour at 37° C., 5% CO2 incubator. 10 μl of 3.3 μg/mL rhIL-2 (R&D Systems #202-IL) was added to the cells (300 ng/ml final assay concentration). Wells containing T cells, medium with 0.1% DMSO and no rhIL-2 were used as background controls. Plates were incubated for 15 min at 37° C. After rhIL-2 stimulation, 800 μL of cold PBS/0.1% BSA was added and the plates were centrifuged at 1400 rpm for 5 min at 4° C. Supernatant was aspirated and 100 μL of ice-cold MSD lysis buffer containing protease and phosphatase inhibitors from Phospho-STAT5a/b Tyr694 assay kit (Meso-Scale Discovery #K150IGD) was added to the cell pellet. Plates were shaken for 30 min. at 4° C. and then frozen overnight. The following day, cell lysates were assayed using the MSD ELISA kit protocol for detection of pSTAT5.
Data were collected and transformed into percent inhibition and calculated using the following formula: […]

[3] = biological target: JAK1 (Homo sapiens (Human), UniProt P23458); assay: JAK Caliper Enzyme Assay at 1 mM ATP (JAK1); format: biochemical; settings: Caliper assay at 1 mM ATP
JAK1, sequence (P23458 whole entry): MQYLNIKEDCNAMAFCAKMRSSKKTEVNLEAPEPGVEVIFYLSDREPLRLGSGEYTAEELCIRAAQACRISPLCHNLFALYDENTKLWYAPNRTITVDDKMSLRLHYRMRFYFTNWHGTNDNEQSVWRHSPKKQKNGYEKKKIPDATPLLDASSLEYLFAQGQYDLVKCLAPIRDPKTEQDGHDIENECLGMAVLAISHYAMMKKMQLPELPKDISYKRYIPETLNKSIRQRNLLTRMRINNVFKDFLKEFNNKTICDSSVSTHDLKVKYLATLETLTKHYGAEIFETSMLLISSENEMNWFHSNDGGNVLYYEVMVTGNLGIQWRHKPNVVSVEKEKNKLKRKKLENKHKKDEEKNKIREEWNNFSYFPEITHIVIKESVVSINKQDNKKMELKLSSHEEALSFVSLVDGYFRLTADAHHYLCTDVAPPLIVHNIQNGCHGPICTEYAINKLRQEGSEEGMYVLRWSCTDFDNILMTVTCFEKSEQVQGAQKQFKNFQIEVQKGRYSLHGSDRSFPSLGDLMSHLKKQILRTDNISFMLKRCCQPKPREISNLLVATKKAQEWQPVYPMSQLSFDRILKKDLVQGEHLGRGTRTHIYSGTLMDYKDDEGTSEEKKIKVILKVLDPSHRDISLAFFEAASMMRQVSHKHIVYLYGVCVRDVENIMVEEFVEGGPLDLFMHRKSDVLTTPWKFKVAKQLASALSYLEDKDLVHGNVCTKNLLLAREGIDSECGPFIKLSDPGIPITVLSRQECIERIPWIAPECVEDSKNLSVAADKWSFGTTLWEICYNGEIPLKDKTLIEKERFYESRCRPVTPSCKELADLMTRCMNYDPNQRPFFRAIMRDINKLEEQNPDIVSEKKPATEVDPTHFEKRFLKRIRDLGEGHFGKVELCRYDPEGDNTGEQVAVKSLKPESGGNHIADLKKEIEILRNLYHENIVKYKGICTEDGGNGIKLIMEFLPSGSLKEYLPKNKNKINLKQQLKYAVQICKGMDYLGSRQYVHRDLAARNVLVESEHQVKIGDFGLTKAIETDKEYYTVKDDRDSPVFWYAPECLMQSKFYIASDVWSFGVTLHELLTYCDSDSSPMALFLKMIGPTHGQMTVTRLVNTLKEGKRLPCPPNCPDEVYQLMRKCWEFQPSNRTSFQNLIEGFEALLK

[4] = biological target: JAK2 (Homo sapiens (Human), UniProt O60674); assay: JAK Caliper Enzyme Assay at 1 mM ATP (JAK2); format: biochemical; settings: Caliper assay at 1 mM ATP
JAK2, sequence (O60674 whole entry): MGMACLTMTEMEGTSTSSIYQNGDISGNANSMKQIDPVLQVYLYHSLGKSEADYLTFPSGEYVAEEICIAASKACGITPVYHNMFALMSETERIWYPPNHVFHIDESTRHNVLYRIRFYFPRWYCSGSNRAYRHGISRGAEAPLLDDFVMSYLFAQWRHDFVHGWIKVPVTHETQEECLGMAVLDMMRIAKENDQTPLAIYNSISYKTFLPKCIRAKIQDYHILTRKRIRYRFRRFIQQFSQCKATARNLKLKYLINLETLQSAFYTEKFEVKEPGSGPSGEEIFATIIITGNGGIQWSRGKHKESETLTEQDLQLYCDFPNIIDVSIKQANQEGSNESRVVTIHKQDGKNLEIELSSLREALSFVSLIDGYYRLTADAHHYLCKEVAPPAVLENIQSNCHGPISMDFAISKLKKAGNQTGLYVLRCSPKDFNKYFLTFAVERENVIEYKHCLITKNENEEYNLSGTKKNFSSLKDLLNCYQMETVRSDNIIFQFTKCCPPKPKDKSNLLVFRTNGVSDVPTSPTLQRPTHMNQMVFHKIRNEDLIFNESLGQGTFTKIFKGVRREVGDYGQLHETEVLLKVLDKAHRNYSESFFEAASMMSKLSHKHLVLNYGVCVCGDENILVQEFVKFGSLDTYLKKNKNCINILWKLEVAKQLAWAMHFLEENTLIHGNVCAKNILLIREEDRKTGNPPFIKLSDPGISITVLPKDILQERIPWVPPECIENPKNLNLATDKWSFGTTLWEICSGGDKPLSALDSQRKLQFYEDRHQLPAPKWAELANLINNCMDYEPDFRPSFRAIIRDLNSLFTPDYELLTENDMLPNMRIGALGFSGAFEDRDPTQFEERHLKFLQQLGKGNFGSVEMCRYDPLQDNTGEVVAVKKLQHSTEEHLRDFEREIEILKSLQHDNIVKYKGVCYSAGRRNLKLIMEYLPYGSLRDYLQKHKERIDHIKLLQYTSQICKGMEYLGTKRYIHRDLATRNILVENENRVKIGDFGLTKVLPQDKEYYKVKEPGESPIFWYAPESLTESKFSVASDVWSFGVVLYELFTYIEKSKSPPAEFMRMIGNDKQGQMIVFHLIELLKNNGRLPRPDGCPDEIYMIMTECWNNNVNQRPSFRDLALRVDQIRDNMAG

[5] = biological target: JAK3 (Homo sapiens (Human), UniProt P52333); assay: JAK Caliper Enzyme Assay at 1 mM ATP (JAK3); format: biochemical; settings: Caliper assay at 1 mM ATP
JAK3, sequence (P52333 whole entry): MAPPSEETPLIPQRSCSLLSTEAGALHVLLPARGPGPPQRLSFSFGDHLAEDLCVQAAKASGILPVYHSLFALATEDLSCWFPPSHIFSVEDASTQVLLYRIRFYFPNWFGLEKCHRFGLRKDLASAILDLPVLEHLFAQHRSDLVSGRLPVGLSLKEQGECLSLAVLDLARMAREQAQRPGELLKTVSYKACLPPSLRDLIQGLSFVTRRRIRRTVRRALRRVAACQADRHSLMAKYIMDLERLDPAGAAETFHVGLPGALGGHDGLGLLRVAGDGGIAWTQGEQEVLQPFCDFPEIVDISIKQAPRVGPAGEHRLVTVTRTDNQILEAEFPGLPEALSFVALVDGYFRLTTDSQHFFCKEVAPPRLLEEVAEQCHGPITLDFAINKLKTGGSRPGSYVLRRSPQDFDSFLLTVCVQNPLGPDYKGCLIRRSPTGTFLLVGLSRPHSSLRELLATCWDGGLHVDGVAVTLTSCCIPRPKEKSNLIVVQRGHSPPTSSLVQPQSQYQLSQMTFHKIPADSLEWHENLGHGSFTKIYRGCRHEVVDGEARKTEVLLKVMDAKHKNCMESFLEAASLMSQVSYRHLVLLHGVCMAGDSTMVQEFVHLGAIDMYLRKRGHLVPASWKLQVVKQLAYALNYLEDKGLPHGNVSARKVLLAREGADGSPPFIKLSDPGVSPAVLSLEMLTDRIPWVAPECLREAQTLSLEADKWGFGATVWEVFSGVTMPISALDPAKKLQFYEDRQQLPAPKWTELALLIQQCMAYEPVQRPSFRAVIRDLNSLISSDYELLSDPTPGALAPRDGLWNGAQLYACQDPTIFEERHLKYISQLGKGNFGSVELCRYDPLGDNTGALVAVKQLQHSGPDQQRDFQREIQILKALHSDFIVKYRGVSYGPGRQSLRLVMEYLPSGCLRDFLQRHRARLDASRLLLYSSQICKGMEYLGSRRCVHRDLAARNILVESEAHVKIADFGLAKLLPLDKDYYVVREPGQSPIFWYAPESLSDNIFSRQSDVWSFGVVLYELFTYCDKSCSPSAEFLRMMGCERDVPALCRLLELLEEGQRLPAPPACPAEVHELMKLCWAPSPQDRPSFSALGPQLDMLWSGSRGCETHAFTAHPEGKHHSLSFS

[6] = biological target: TYK2 (Homo sapiens (Human), UniProt P29597); assay: JAK Caliper Enzyme Assay at 1 mM ATP (TYK2); format: biochemical; settings: Caliper assay at 1 mM ATP
TYK2, sequence (P29597 whole entry): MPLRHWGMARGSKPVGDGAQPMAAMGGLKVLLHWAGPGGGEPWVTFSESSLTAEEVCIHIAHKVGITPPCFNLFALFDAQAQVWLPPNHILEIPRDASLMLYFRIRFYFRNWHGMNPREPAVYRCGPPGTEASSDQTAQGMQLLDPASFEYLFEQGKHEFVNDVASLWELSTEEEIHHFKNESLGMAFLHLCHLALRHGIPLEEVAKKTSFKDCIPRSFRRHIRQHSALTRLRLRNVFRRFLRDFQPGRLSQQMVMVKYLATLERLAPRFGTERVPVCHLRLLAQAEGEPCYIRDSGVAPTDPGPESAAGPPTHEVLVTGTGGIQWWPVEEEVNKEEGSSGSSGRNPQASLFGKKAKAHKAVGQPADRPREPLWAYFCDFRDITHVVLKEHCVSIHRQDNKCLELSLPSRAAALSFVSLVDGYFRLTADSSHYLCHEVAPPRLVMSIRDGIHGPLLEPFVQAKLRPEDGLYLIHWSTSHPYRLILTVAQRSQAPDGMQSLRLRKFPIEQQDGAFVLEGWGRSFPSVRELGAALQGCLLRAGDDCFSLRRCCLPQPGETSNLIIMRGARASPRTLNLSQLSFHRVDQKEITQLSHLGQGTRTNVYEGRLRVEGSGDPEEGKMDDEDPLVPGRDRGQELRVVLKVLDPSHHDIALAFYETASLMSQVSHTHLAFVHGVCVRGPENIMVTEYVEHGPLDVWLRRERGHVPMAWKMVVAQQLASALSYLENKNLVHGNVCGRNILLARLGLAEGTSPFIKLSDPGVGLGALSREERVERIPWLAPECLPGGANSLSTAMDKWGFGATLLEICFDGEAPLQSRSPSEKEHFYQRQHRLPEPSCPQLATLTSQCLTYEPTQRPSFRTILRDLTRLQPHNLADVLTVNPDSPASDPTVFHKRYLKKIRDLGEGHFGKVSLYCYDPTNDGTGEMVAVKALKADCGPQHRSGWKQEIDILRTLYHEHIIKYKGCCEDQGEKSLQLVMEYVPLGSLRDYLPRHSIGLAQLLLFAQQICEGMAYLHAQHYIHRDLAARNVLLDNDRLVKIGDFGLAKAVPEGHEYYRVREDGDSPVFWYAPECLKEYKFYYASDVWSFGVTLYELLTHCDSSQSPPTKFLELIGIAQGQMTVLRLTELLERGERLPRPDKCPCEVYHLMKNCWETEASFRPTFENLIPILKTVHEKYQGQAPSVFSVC

Structure (SMILES) | IC50 [1] [µM] | IC50 [2] [µM] | IC50 [3] [µM] | IC50 [4] [µM] | IC50 [5] [µM] | IC50 [6] [µM]
CCc1cc(O)c(F)cc1-c1cc2[nH]ncc2c(N(C)Cc2ccccc2N(C)S(C)(=O)=O)n1 [Example 146, N-[2-({[6-(2-Ethyl-5-fluoro-4-hydroxyphenyl)-1H-pyrazolo[4,3-c]pyridin-4-yl](methyl)amino}methyl)phenyl]-N-methylmethanesulfonamide hydrochloride] | 0.0076 | 0.0623 |  |  |  | 
CCc1cc(O)c(F)cc1-c1cc2[nH]nc(-c3nnc(C)[nH]3)c2c(NCc2ccccc2N(C)S(C)(=O)=O)n1 [Example 165, N-[2-({[6-(2-Ethyl-5-fluoro-4-hydroxyphenyl)-3-(5-methyl-4H-1,2,4-triazol-3-yl)-1H-pyrazolo[4,3-c]pyridin-4-yl]amino}methyl)phenyl]-N-methylmethanesulfonamide] | 0.567 | 0.0913 |  |  |  | 
CCc1cc(O)c(F)cc1-c1cc2[nH]ncc2c(NCc2c(F)cccc2N(C)S(C)(=O)=O)n1 [Example 134, N-[2-({[6-(2-ethyl-5-fluoro-4-hydroxyphenyl)-1H-pyrazolo[4,3-c]pyridin-4-yl]amino}methyl)-3-fluorophenyl]-N-methylmethanesulfonamide hydrochloride] |  | 0.259 |  |  |  | 
Cc1cnc(N(C)S(C)(=O)=O)c(CNc2nc(-c3cc(F)c(O)cc3CC(F)(F)F)cc3[nH]nc(C(N)=O)c23)c1 [Example 86, 6-(5-fluoro-4-hydroxy-2-(2,2,2-trifluoroethyl)phenyl)-4-(((5-methyl-2-(N-methylmethylsulfonamido)pyridin-3-yl)methyl)amino)-1H-pyrazolo[4,3-c]pyridine-3-carboxamide] | 0.425 |  | 0.0384 | 0.11 | 0.0817 | 4.82
CNC(=O)c1n[nH]c2cc(-c3cc(F)c(O)cc3CC(F)(F)F)nc(NCc3cc(F)ccc3N(C)S(C)(=O)=O)c12 [Example 14, 6-[5-fluoro-4-hydroxy-2-(2,2,2-trifluoroethyl)phenyl]-4-({5-fluoro-2-[methyl(methylsulfonyl)amino]benzyl}amino)-N-methyl-1H-pyrazolo[4,3-c]pyridine-3-carboxamide] | 0.0207 |  | 0.0042 | 0.0205 | 0.0997 | 0.0432
CN(c1ccccc1CNc1nc(-c2cc(F)c(O)cc2CC(F)(F)F)cc2[nH]nc(C(N)=O)c12)S(=O)(=O)c1ccccc1 [Example 26, 6-[5-fluoro-4-hydroxy-2-(2,2,2-trifluoroethyl)phenyl]-4-({2-[methyl(phenylsulfonyl)amino]benzyl}amino)-1H-pyrazolo[4,3-c]pyridine-3-carboxamide] | 0.124 |  | 0.0199 | 0.0911 | 0.293 | 0.217
CNC(=O)c1n[nH]c2cc(-c3cc(F)c(O)cc3CC(F)(F)F)nc(NCc3ccc(O)cc3N(C)S(C)(=O)=O)c12 [Example 33, 6-[5-fluoro-4-hydroxy-2-(2,2,2-trifluoroethyl)phenyl]-4-({4-hydroxy-2-[methyl(methylsulfonyl)amino]benzyl}amino)-N-methyl-1H-pyrazolo[4,3-c]pyridine-3-carboxamide] | 0.49 |  | 0.0057 | 0.025 | 0.0752 | 0.282
CCc1cc(O)c(F)cc1-c1cc2[nH]nc(C(=O)NC)c2c(NCC2CCCC2)n1 [Example 10, 4-[(cyclopentylmethyl)amino]-6-(2-ethyl-5-fluoro-4-hydroxyphenyl)-N-methyl-1H-pyrazolo[4,3-c]pyridine-3-carboxamide] | 0.026 |  | 0.0047 | 0.019 | 0.0931 | 0.0179
CCc1cc(O)c(F)cc1-c1cc2[nH]nc(C(=O)NC)c2c(NCCc2ccc(NS(=O)(=O)c3ccccc3)cc2)n1 [Example 23, 6-(2-ethyl-5-fluoro-4-hydroxyphenyl)-N-methyl-4-[(2-{4-[(phenylsulfonyl)amino]phenyl}ethyl)amino]-1H-pyrazolo[4,3-c]pyridine-3-carboxamide] | 0.0514 |  | 0.0058 | 0.0257 | 0.111 | 0.0832
CCc1cc(O)c(F)cc1-c1cc2[nH]nc(C(=O)NC)c2c(NCc2cc(C)ccc2N(C)S(C)(=O)=O)n1 [Example 21, 6-(2-ethyl-5-fluoro-4-hydroxyphenyl)-N-methyl-4-({5-methyl-2-[methyl(methylsulfonyl)amino]benzyl}amino)-1H-pyrazolo[4,3-c]pyridine-3-carboxamide] | 0.0356 |  | 0.0027 | 0.0132 | 0.0679 | 0.0114
CNC(=O)c1n[nH]c2cc(-c3cc(F)c(O)cc3CC(F)(F)F)nc(NCc3cc(O)ccc3N(C)S(=O)(=O)c3ccccc3)c12 [Example 35, 6-[5-fluoro-4-hydroxy-2-(2,2,2-trifluoroethyl)phenyl]-4-({5-hydroxy-2-[methyl(phenylsulfonyl)amino]benzyl}amino)-N-methyl-1H-pyrazolo[4,3-c]pyridine-3-carboxamide] | 0.437 |  | 0.0399 | 0.249 | 0.817 | 0.256
CNC(=O)c1n[nH]c2cc(-c3cc(F)c(O)cc3CC(F)(F)F)nc(NCc3ccccc3N(CCO)S(C)(=O)=O)c12 [Example 24, 6-[5-fluoro-4-hydroxy-2-(2,2,2-trifluoroethyl)phenyl]-4-({2-[(2-hydroxyethyl)(methylsulfonyl)amino]benzyl}amino)-N-methyl-1H-pyrazolo[4,3-c]pyridine-3-carboxamide] | 0.226 |  | 0.0029 | 0.0165 | 0.0696 | 0.0299
CNC(=O)c1n[nH]c2cc(-c3cc(F)c(O)cc3CC(F)(F)F)nc(NCc3cc(O)ccc3N(C)S(=O)(=O)c3cccnc3)c12 [Example 54, 6-[5-fluoro-4-hydroxy-2-(2,2,2-trifluoroethyl)phenyl]-4-({5-hydroxy-2-[methyl(pyridin-3-ylsulfonyl)amino]benzyl}amino)-N-methyl-1H-pyrazolo[4,3-c]pyridine-3-carboxamide] | 0.135 |  | 0.0061 | 0.0329 | 0.123 | 0.0259
CCc1cc(O)c(F)cc1-c1cc2[nH]nc(C(=O)NC)c2c(NCc2ccccc2N(C)S(=O)(=O)c2ccccc2)n1 [Example 22, 6-(2-ethyl-5-fluoro-4-hydroxyphenyl)-N-methyl-4-({2-[methyl(phenylsulfonyl)amino]benzyl}amino)-1H-pyrazolo[4,3-c]pyridine-3-carboxamide] | 0.0528 |  | 0.0175 | 0.0813 | 0.359 | 0.0591
CCN(c1ccccc1CNc1nc(-c2cc(F)c(O)cc2CC(F)(F)F)cc2[nH]nc(C(=O)NC)c12)S(C)(=O)=O [Example 12, 4-({2-[ethyl(methylsulfonyl)amino]benzyl}amino)-6-[5-fluoro-4-hydroxy-2-(2,2,2-trifluoroethyl)phenyl]-N-methyl-1H-pyrazolo[4,3-c]pyridine-3-carboxamide] | 0.0449 |  | 0.0064 | 0.0315 | 0.121 | 0.0248
